The record followed here is ChEMBL document CHEMBL5291721, “A preclinical secondary pharmacology resource illuminates target-adverse drug reaction associations of marketed drugs” (Nat Commun, 2023).

Experiment [1] addresses D(1B) dopamine receptor (Homo sapiens, UniProt P21918).
Experiment [2] has as its target T1, Retinoic acid receptor alpha (Homo sapiens, UniProt P10276).
T1 sequence (P10276 whole entry): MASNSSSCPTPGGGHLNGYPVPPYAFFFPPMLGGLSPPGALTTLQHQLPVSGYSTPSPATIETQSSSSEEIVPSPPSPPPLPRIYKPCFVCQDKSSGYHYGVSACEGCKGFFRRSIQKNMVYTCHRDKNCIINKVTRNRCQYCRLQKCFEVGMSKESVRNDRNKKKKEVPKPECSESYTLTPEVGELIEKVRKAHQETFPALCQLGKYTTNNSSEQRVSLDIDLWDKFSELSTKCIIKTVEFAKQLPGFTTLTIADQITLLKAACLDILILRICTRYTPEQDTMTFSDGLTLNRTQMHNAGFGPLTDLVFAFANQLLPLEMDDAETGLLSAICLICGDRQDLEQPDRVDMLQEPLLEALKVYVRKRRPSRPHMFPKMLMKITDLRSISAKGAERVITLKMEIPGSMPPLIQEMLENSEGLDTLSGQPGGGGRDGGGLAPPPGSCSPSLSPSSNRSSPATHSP
The class given is functional, cell-based.

Experiment [3] concerns the target T2, Oxysterols receptor LXR-alpha (Homo sapiens, UniProt Q13133).
T2 sequence (Q13133 whole entry): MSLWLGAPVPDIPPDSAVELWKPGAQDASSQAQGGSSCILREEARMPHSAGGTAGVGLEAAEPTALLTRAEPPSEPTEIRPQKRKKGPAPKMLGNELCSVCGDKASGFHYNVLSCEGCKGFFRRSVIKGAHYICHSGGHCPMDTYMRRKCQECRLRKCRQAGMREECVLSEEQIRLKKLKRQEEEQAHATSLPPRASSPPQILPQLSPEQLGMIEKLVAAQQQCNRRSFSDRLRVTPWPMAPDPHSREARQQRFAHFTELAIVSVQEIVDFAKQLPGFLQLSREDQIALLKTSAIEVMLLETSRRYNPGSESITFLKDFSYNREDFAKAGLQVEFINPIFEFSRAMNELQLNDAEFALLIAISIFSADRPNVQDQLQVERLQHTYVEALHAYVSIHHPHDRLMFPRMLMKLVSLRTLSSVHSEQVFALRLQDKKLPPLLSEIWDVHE
The format is functional.

The target in experiment [4] is T3, Bile acid receptor (Homo sapiens, UniProt Q96RI1).
T3 sequence (Q96RI1 whole entry): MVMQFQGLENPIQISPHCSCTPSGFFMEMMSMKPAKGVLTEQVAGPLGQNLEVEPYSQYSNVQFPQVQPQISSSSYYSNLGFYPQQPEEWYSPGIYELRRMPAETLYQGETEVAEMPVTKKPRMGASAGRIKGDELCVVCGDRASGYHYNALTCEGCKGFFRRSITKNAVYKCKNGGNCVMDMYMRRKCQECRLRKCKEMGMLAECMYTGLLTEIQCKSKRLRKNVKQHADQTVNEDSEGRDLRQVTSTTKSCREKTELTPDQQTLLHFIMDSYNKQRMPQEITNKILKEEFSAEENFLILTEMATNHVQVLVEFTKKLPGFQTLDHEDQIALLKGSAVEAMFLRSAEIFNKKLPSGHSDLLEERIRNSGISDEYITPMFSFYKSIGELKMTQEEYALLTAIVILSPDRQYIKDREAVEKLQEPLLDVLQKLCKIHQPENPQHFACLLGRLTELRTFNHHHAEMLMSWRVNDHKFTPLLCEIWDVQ
The class given is functional.
Also: assay procedure not described here.

Sequence of D(1B) dopamine receptor (P21918 whole entry): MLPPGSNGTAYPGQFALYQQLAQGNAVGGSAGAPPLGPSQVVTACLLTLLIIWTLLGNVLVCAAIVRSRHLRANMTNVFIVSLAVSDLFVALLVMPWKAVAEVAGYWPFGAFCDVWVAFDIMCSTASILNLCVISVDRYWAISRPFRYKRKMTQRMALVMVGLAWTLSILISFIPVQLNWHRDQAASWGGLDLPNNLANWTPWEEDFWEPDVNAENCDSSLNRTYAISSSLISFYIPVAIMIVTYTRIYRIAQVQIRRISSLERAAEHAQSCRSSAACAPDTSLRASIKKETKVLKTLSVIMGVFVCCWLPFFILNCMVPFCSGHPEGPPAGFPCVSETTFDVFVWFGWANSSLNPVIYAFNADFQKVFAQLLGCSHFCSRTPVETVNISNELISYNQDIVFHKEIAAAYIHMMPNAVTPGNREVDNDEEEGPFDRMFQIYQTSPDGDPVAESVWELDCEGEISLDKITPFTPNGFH

In the case of `CCOC(=O)[C@H](CCc1ccccc1)N[C@@H](C)C(=O)N1Cc2ccccc2C[C@H]1C(=O)O`, the AC50 in experiment [1] is > 10 µM.
Turning to `CC(C)/N=c1\cc2n(-c3ccc(Cl)cc3)c3ccccc3nc-2cc1Nc1ccc(Cl)cc1` [CLOFAZIMINE], the concentration at half-maximal activity (AC50) in experiment [2], in experiment [3] and in experiment [4] was > 30 µM each time.
